Key:
CDK9/CycT1 = target: T1, CDK9/CycT1 (Homo sapiens, UniProt P50750); test: CDK9/CycT1 kinase assay (TR-FRET); assay type: biochemical; settings: ATP 10 μM
T1 construct: Recombinant full-length His-tagged human CDK9 and CycT1; His; purchased Invitrogen PV4131; host or cells: insect cells
Source text: CDK9/CycT1-inhibitory activity of compounds of the present invention was quantified employing the CDK9/CycT1 TR-FRET assay as described in the following paragraphs.
Recombinant full-length His-tagged human CDK9 and CycT1, expressed in insect cells and purified by Ni-NTA affinity chromatography, were purchased from Invitrogen (catalogue number PV4131). A biotinylated peptide biotin-Ttds-[…] (C-terminus in amide form), which can be purchased from e.g the company JERINI Peptide Technologies (Berlin, Germany), was used as a substrate for the kinase reaction.
(§1) For the assay, 50 nl of a 100-fold concentrated solution of the test compound in DMSO was pipetted into a well of a black low-volume 384-well microtiter plate (Greiner Bio-One, Frickenhausen, Germany), 2 μl of a solution of CDK9/CycT1 in aqueous assay buffer [50 mM Tris/HCl pH 8.0], 10 mM MgCl2, 1.0 mM dithiothreitol, 0.1 mM sodium ortho-vanadate, 0.01% (v/v) Nonidet-P40 (Sigma)] were added. The mixture was incubated at 22° C. for 15 min to allow pre-binding of the test compounds to the enzyme before the start of the kinase reaction. […] The resulting mixture was incubated at 22° C. for a reaction time of 25 minutes. The concentration of CDK9/CycT1 was adjusted depending of the activity of the enzyme lot and was chosen appropriately for measurements in the linear range of the assay. Typical concentrations were in the range of 1 μg/ml. The reaction was stopped by the addition of 5 μl of a solution of TR-FRET detection reagents (0.2 μM streptavidine-XL and 1 nM anti-RB(pSer807/pSer811)-antibody from BD Pharmingen [#558389] and 1.2 nM LANCE EU-W1024 labeled anti-mouse IgG antibody [Perkin-Elmer, product no. AD0077]) in an aqueous EDTA-solution (100 mM EDTA, 0.2% (w/v) bovine serum albumin in 100 mM HEPES/NaOH, pH 7.0).
(§2) The resulting mixture was incubated at 22° C. for one hour to allow the formation of a complex between the phosphorylated biotinylated peptide and the detection reagents. Subsequently, the amount of phosphorylated substrate was evaluated by measurement of the resonance energy transfer from the Eu-chelate to the streptavidine-XL. Therefore, the fluorescence emissions at 620 nm and 665 nm after excitation at 350 nm were measured in a HTRF reader, e.g. a Rubystar (BMG Labtechnologies, Offenburg, Germany) or a Viewlux (Perkin-Elmer). The ratio of the emissions at 665 nm and at […] was taken as a measure for the amounts of phosphorylated substrate. The data were normalised, i.e. enzyme reaction without inhibitor corresponds to 0% inhibition, and all other assay components in the absence of the enzyme correspond to 100% inhibition. IC50 values were calculated by a 4-parameter fit using in-house software.

CDK2/CycE = target: T2, CDK2/CycE (Homo sapiens, UniProt P24941); test: CDK2/CycE kinase assay (TR-FRET); assay type: biochemical; settings: ATP 10 μM
T2 construct: GST; purchased ProQinase GmbH (Freiburg, Germany); host or cells: insect cells (Sf-9)
Source text: CDK2/CycE-inhibitory activity of compounds of the present invention was quantified employing the CDK2/CycE TR-FRET assay as described in the following paragraphs.
Recombinant fusion proteins of glutathione S-transferase (GST) and human CDK2 and of GST and human CycE, expressed in insect cells (Sf-9) and purified by glutathion-sepharose affinity chromatography, were purchased from ProQinase GmbH (Freiburg, Germany). A biotinylated peptide biotin-Ttds-[…] (C-terminus in amide form), which can be purchased from e.g the company JERINI Peptide Technologies (Berlin, Germany), was used as a substrate for the kinase reaction.
as §1, with “of CDK2/CycE” for “of CDK9/CycT1”, “for” for “for a reaction time of”, “depending on” for “depending of”, “of 130 ng/ml.” for “of 1 μg/ml.”
as §2, with “measuring” for “measurement of”, “high time-resolved fluorometry (HTRF)” for “HTRF”

T1 sequence (P50750 whole entry): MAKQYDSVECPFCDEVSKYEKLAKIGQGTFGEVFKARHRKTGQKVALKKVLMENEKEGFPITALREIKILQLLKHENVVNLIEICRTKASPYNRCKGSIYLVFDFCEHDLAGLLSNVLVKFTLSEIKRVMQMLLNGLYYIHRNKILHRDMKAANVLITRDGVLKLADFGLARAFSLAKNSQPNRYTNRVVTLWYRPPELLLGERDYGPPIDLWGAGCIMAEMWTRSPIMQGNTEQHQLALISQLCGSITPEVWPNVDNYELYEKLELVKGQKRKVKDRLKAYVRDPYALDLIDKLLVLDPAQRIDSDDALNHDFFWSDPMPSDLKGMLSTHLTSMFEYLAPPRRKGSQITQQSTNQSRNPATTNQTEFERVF
T1 sequence (O60563 whole entry partner): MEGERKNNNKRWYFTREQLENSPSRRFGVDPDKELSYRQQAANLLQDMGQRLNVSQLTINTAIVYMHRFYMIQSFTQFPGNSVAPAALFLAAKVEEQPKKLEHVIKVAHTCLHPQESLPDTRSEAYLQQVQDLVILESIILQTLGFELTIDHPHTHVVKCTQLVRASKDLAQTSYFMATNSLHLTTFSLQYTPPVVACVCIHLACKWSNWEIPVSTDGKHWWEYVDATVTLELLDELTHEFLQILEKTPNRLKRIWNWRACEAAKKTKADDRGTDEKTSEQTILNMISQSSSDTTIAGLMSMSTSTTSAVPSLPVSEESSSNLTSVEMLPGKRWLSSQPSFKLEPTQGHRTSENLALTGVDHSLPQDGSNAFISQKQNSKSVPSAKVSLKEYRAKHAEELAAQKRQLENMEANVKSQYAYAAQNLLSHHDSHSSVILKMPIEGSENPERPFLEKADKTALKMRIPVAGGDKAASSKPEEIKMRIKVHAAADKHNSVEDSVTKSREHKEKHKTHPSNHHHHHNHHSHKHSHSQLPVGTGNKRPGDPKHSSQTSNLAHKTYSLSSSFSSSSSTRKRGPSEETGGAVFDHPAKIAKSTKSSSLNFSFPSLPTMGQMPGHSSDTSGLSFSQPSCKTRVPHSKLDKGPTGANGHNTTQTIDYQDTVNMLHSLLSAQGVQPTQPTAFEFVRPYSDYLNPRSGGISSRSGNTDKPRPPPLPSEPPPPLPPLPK

| Compound | IC50 (CDK9/CycT1; values in nM) | IC50 (CDK2/CycE; values in nM) | IC50 (CDK9/CycT1; values given in μM) | IC50 (CDK2/CycE; values given in μM) |
| --- | --- | --- | --- | --- |
| COc1ccccc1-c1ncnc(Nc2cccc(S(N)(=O)=O)c2)n1 [Compound C1, 3-[(4-(2-Methoxyphenyl)-1,3,5-triazin-2-yl)amino]benzenesulfonamide] | 10 nM | 450 nM | – | – |
| NC(=O)c1ccc(Nc2ncnc(-c3ccccc3NC(=O)c3ccccc3)n2)cc1 [Ref5, 4-[4-(2-Benzoylaminophenyl)-[1,3,5]triazin-2-ylamino]benzamide, reference compound] | – | – | 8400 nM | 14000 nM |
| NS(=O)(=O)Cc1cccc(Nc2ncnc(-c3ccc(F)cc3C(F)(F)F)n2)c1 [Compound U1, 1-[3-({4-[4-fluoro-2-(trifluoromethyl)phenyl]-1,3,5-triazin-2-yl}amino)phenyl]methanesulfonamide] | – | – | 15000 nM | 15000 nM |
| COc1c(-c2ncnc(Nc3cccc(CS(N)(=O)=O)c3)n2)ccc(F)c1F [Compound U6, 1-(3-{[4-(3,4-difluoro-2-methoxyphenyl)-1,3,5-triazin-2-yl]amino}phenyl)methanesulfonamide] | 370 nM | – | – | 12000 nM |
| CC(=O)Nc1cc(F)ccc1-c1ncnc(Nc2cccc(CS(N)(=O)=O)c2)n1 [Compound U4, N-[5-fluoro-2-(4-{[3-(sulfamoylmethyl)phenyl]amino}-1,3,5-triazin-2-yl)phenyl]acetamide] | – | – | 3600 nM | 3000 nM |
| NS(=O)(=O)Cc1cccc(Nc2ncnc(-c3ccc(F)cc3OCC3CC3)n2)c1 [Compound U5, 1-[3-({4-[2-(cyclopropylmethoxy)-4-fluorophenyl]-1,3,5-triazin-2-yl}amino)phenyl]methanesulfonamide] | 34 nM | – | – | 1600 nM |
| Cc1ccc(Cl)cc1-c1ncnc(Nc2ccc(Cl)cc2)n1 [Ref3, [6-(5-Chloro-2-methyl-phenyl)-[1,3,5]triazin-4-yl]-(4-chloro-phenyl)-amine, reference compound] | – | – | > 20000 nM | > 20000 nM |
